Reference: patent US8753680B2, “Capsule for the prevention of cardiovascular diseases” (Ferrer Internacional S.A., priority 2008, dated 2014)

Legend:
[1] = general statement, no test described; cited from earlier work
[2] = Degradation of acetylsalicylic acid by moisture; format: physicochemical; settings: found in the course of the investigation
From the text: Subsequent acetylsalicylic acid sublimation occurs on the surface of ACE inhibitor tablets thus inducing its chemical degradation. A partially hydrolysed polyvinyl alcohol coating film (Opadry AMB™, Colorcon) has been found useful for protecting both acetylsalicylic acid and the ACE inhibitor tablets because of its moisture barrier properties. HMG-CoA reductase inhibitor tablets in the present invention may be coated with a coloured film, such as a hydroxypropylmethyl cellulose comprising film (Opadry Orange™, Colorcon) to hide darkened appearance. Opadry AMB coatings also may comprise one or more than one pigment.

SMILES	Solubility in water [1]	Degradation due to moisture [2]
NCCCC[C@H](N[C@@H](CCc1ccccc1)C(=O)O)C(=O)N1CCC[C@H]1C(=O)O [lisinopril, 1-[N^2-[(S)-1-carboxy-3-phenylpropyl]-L-lysyl]-L-proline]	one of the most soluble in water	
CC(=O)Oc1ccccc1C(=O)O [acetylsalicylic acid]		degrades to salicylic acid due to moisture
CCC[C@H](N[C@@H](C)C(=O)N1[C@H](C(=O)O)C[C@@H]2CCCC[C@@H]21)C(=O)OCC [perindopril, 1-ethylic ester of (2S,3aS,7aS)-1-[(S)-N-[(S)-1-carboxybutyl]alanyl]hexahydro-2-indolinecarboxylic acid]	freely soluble in water	
